Measured values reported in patent US9249125B2, “Pyrazole derivatives as p38 MAP inhibitors” (RESPIVERT LIMITED, priority 2012, dated 2016).
pEC50, pIC50: −log10 of the molar value.

Experiments:
cSrc = cSrc (Homo sapiens (Human), UniProt P12931); assay: c-Src enzyme inhibition (FRET, Z-LYTE); type: biochemical
How it was run: (§1)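 Z-LYTE FRET kinase assay: enzyme (3000 or 2000 ng/mL stock, respectively) preincubated 2 h at RT with compound (4–0.004 μg/mL stocks), then FRET peptide plus ATP (800 μM stock for c-Src, 60 μM for Syk) added for 1 h. Protease development 1 h; phosphorylation from coumarin/fluorescein emission ratio.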

Syk = Syk (Homo sapiens (Human), UniProt P43405); assay: Syk enzyme inhibition (FRET, Z-LYTE); type: biochemical
How it was run: as §1

GSK3α = GSK3α (Homo sapiens (Human), UniProt P49840); assay: GSK 3α enzyme inhibition (FRET, Z-LYTE); type: biochemical
How it was run: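 GSK3α (500 ng/mL stock) was preincubated 2 hr at RT with compound (4 to 0.004 μg/mL stocks), then FRET peptide (8 μM stock) and ATP (40 μM stock) added for 1 hr. Protease development for 1 hr cleaved unphosphorylated peptide; coumarin/fluorescein emission ratio reported phosphorylation.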

[1] = system: LPS-induced TNFα release in d-U937 cells; assay: LPS-induced TNFα release in d-U937 cells; type: cell-based; details: Homo sapiens, dU937, relative to 10 μg/mL BIRB796, read-out: LPS Induced Release of Cytokine in d-937 Cells TNFα REC50
How it was run: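 Read-out: TNFα and IL-8 released into supernatant, sandwich ELISA, expressed as inhibition versus vehicle at each dose and fitted to give REC50. Cells were PMA-differentiated U937 (100 ng/mL, 48–72 hr), compound-exposed 2 hr before a 4 hr LPS stimulus (0.1 μg/mL).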

[2] = system: LPS-induced IL-8 release in d-U937 cells; assay: LPS-induced IL-8 release in d-U937 cells; type: cell-based; details: Homo sapiens, dU937, read-out: LPS Induced Release of Cytokine in d-937 Cells IL-8 IC50
How it was run: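 First, U937 monocytes undergo PMA treatment (100 ng/mL) for 48 to 72 hr to become macrophage-type. Next, compound at final concentrations is added for 2 hr, followed by LPS at 0.1 μg/mL for 4 hr. Finally, cytokines in the supernatant are quantified by ELISA against vehicle-treated cells.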

[3] = system: Poly I:C-induced ICAM-1 expression in BEAS2B cells; assay: Poly I:C-induced ICAM-1 expression in BEAS2B cells; type: cell-based; details: Homo sapiens, BEAS-2B, read-out: Poly IC induced ICAM1 in BEAS2B IC50
How it was run: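 BEAS2B human bronchial epithelial cells pre-incubated with compound for 2 hr, then transfected with 1 μg/mL poly I:C plus Oligofectamine. At 18 hr, surface ICAM-1 measured by cell-based ELISA (HRP, OD450–655). Signal corrected for cell number by crystal violet OD595.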

d-U937 cells = assay: Cell viability: MTT assay; type: cell-based, human; details: 1 μg/mL
How it was run: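 Differentiated U937 cells were exposed to compound at 1 or 10 μg/mL either 4 h in 5% FCS RPMI1640 or 24 h in 10% FCS RPMI1640, then given MTT for 1 h, DMSO-solubilised and read at 550 nm. Percent viability loss versus 0.5% DMSO vehicle; apparent gains appear negative.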

cSrc, sequence (P12931 whole entry, looked up): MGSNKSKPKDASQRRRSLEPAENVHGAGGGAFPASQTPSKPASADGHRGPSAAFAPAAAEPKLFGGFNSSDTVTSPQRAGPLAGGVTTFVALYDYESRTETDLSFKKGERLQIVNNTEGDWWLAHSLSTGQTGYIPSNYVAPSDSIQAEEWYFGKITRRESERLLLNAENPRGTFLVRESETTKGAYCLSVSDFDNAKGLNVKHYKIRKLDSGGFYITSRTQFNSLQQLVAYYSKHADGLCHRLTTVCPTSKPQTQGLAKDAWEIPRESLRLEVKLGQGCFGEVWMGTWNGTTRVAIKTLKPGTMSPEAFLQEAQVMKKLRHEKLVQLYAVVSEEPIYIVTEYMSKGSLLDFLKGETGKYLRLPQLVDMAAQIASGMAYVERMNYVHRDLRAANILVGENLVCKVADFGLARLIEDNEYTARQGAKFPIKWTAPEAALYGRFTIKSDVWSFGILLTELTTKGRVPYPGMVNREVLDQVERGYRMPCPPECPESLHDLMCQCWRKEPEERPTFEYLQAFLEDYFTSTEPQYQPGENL
GSK3α, sequence (P49840 whole entry): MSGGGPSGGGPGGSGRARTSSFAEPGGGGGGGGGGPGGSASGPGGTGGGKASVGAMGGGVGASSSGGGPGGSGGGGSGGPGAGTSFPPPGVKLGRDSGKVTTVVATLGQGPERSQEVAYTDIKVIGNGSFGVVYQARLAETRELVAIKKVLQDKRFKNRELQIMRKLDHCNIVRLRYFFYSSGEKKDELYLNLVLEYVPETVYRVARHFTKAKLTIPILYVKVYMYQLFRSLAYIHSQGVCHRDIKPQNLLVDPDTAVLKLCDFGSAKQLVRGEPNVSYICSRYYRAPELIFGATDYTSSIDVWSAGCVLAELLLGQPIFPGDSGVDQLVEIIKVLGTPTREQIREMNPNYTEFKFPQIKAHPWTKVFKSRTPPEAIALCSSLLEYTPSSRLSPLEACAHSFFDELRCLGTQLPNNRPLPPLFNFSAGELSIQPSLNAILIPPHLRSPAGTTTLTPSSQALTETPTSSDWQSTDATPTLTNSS

SMILES	pIC50 (cSrc)	pIC50 (Syk)	pIC50 (GSK3α)	pEC50 [1]	pIC50 [2]	pIC50 [3]	MTT Assay Cell viability at time point in d-U937 cells 4 h (d-U937 cells)	MTT Assay Cell viability at time point in d-U937 cells 24 h (d-U937 cells)
Cc1ccc(-n2nc(C(C)(C)C)cc2NC(=O)Nc2ccc(Oc3ccnc(Nc4ccc5c(c4)ncn5C)n3)c3ccccc23)cc1 [Example 4, 1-(3-(tert-Butyl)-1-(p-tolyl)-1H-pyrazol-5-yl)-3-(4-((2-((1-methyl-1H-benzo[d]imidazol-5-yl)amino)pyrimidin-4-yl)oxy)naphthalen-1-yl)urea]	8.40	7.85	5.86	8.62	8.70	8.62	−ve (−ve and +ve indicate that the value is below and above respectively, the no significant effect threshold, defined as 30% inhibition at 1 μg/mL at the time point indicated.)	−ve (−ve and +ve indicate that the value is below and above respectively, the no significant effect threshold, defined as 30% inhibition at 1 μg/mL at the time point indicated.)
CC(C)(C)c1cc(NC(=O)Nc2ccc(Oc3ccnc(Nc4ccc5[nH]ncc5c4)n3)c3ccccc23)n(-c2ccc(OCCN3CCOCC3)cc2)n1 [Example 12, 1-(4-((2-((1H-Indazol-5-yl)amino)pyrimidin-4-yl)oxy)naphthalen-1-yl)-3-(3-(tert-butyl)-1-(4-(2-morpholinoethoxy)phenyl)-1H-pyrazol-5-yl)urea]	7.89	7.66	5.41	8.80	8.70	7.67	−ve (−ve and +ve indicate that the value is below and above respectively, the no significant effect threshold, defined as 30% inhibition at 1 μg/mL at the time point indicated.)	−ve (−ve and +ve indicate that the value is below and above respectively, the no significant effect threshold, defined as 30% inhibition at 1 μg/mL at the time point indicated.)
Cc1ccc(-n2nc(C(C)(C)C)cc2NC(=O)Nc2ccc(Oc3ccnc(Nc4cccc5cc[nH]c45)n3)c3ccccc23)cc1 [Example 17]	6.86	6.55	< 4.79	8.06	8.13	8.08	−ve (−ve and +ve indicate that the value is below and above respectively, the no significant effect threshold, defined as 30% inhibition at 1 μg/mL at the time point indicated.)	−ve (−ve and +ve indicate that the value is below and above respectively, the no significant effect threshold, defined as 30% inhibition at 1 μg/mL at the time point indicated.)
Cc1ccc(-n2nc(C(C)(C)C)cc2NC(=O)Nc2ccc(Oc3ccnc(Nc4ccc5c(ccn5C)c4)n3)c3ccccc23)cc1 [Example 18, 1-(3-(tert-butyl)-1-(p-tolyl)-1H-pyrazol-5-yl)-3-(4-((2-((1-methyl-1H-indol-5-yl)amino)pyrimidin-4-yl)oxy)naphthalen-1-yl)urea]	6.81	7.04	5.15	8.55	8.24	8.72	−ve (−ve and +ve indicate that the value is below and above respectively, the no significant effect threshold, defined as 30% inhibition at 1 μg/mL at the time point indicated.)	−ve (−ve and +ve indicate that the value is below and above respectively, the no significant effect threshold, defined as 30% inhibition at 1 μg/mL at the time point indicated.)
Cc1ccc(-n2nc(C(C)(C)C)cc2NC(=O)Nc2ccc(Oc3ccnc(Nc4ccc5[nH]ncc5c4)n3)c3ccccc23)cc1 [Example 22, 1-(4-((2-((1H-indazol-5-yl)amino)pyrimidin-4-yl)oxy)naphthalen-1-yl)-3-(3-(tert-butyl)-1-(p-tolyl)-1H-pyrazol-5-yl)urea]	7.72	7.59	< 4.80	8.33	8.82	8.60	−ve (−ve and +ve indicate that the value is below and above respectively, the no significant effect threshold, defined as 30% inhibition at 1 μg/mL at the time point indicated.)	−ve (−ve and +ve indicate that the value is below and above respectively, the no significant effect threshold, defined as 30% inhibition at 1 μg/mL at the time point indicated.)
Cc1ccc(-n2nc(C(C)(C)C)cc2NC(=O)Nc2ccc(Oc3cc(Nc4ccc5[nH]ncc5c4)ncn3)c3ccccc23)cc1 [Example 23, 1-(4-((6-((1H-indazol-5-yl)amino)pyrimidin-4-yl)oxy)naphthalen-1-yl)-3-(3-(tert-butyl)-1-(p-tolyl)-1H-pyrazol-5-yl)urea]	7.80	7.24	4.90	8.48	8.57	8.37	−ve (−ve and +ve indicate that the value is below and above respectively, the no significant effect threshold, defined as 30% inhibition at 1 μg/mL at the time point indicated.)	−ve (−ve and +ve indicate that the value is below and above respectively, the no significant effect threshold, defined as 30% inhibition at 1 μg/mL at the time point indicated.)
Cc1ccc(-n2nc(C(C)(C)C)cc2NC(=O)Nc2ccc(Oc3ccnc(Nc4ccc5cn[nH]c5c4)n3)c3ccccc23)cc1 [Example 24, 1-(4-((2-((1H-indazol-6-yl)amino)pyrimidin-4-yl)oxy)naphthalen-1-yl)-3-(3-(tert-butyl)-1-(p-tolyl)-1H-pyrazol-5-yl)urea]	6.99	5.96	5.66	8.33	7.77	8.62	−ve (−ve and +ve indicate that the value is below and above respectively, the no significant effect threshold, defined as 30% inhibition at 1 μg/mL at the time point indicated.)	−ve (−ve and +ve indicate that the value is below and above respectively, the no significant effect threshold, defined as 30% inhibition at 1 μg/mL at the time point indicated.)
Cc1ccc(-n2nc(C(C)(C)C)cc2NC(=O)Nc2ccc(Oc3ccnc(Nc4ccc5[nH]cnc5c4)n3)c3ccccc23)cc1 [Example 30, 1-(4-((2-((1H-benzo[d]imidazol-5-yl)amino)pyrimidin-4-yl)oxy)naphthalen-1-yl)-3-(3-(tert-butyl)-1-(p-tolyl)-1H-pyrazol-5-yl)urea]	7.77	< 5.80	6.52	8.74	8.11	8.33	−ve (−ve and +ve indicate that the value is below and above respectively, the no significant effect threshold, defined as 30% inhibition at 1 μg/mL at the time point indicated.)	−ve (−ve and +ve indicate that the value is below and above respectively, the no significant effect threshold, defined as 30% inhibition at 1 μg/mL at the time point indicated.)
Cc1ccc(-n2nc(C(C)(C)C)cc2NC(=O)Nc2ccc(Oc3ccnc(Nc4ccc5ncn(C)c5c4)n3)c3ccccc23)cc1 [Example 31, 1-(3-(tert-butyl)-1-(p-tolyl)-1H-pyrazol-5-yl)-3-(4-((2-((1-methyl-1H-benzo[d]imidazol-6-yl)amino)pyrimidin-4-yl)oxy)naphthalen-1-yl)urea]	8.22	6.70	5.79	9.52	9.22	8.64	−ve (−ve and +ve indicate that the value is below and above respectively, the no significant effect threshold, defined as 30% inhibition at 1 μg/mL at the time point indicated.)	−ve (−ve and +ve indicate that the value is below and above respectively, the no significant effect threshold, defined as 30% inhibition at 1 μg/mL at the time point indicated.)
